Test results: article PMC8020153 (Journal of Advanced Research, 2020)

Target: pyruvate kinase isozyme type M2 (PKM2) (Homo sapiens, UniProt P14618)
Assay: SPR with immobilized recombinant human PKM2
Format: binding

Sequence of pyruvate kinase isozyme type M2 (PKM2) (P14618 2-531): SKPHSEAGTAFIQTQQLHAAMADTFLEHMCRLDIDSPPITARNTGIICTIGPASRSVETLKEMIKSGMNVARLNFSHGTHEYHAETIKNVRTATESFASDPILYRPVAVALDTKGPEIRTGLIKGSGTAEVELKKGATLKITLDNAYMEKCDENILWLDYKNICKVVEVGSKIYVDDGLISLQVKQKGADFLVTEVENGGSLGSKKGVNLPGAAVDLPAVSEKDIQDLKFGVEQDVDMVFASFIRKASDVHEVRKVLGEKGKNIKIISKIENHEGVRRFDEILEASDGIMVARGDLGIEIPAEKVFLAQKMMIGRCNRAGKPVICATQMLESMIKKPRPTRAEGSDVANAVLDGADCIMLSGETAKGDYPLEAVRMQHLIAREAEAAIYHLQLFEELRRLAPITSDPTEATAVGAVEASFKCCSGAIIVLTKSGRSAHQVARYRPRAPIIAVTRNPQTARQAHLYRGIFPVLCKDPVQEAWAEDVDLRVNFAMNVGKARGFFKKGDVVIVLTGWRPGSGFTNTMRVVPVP

SMILES: C1=Cc2ccccc2Nc2ccccc21 [ISB, Iminostilbene]
- Kd: 18.6 µM
